Results taken from US20250120975A1, “INTEGRIN INHIBITORS FOR TREATMENT OF PRIMARY SCLEROSING CHOLANGITIS” (Pliant Therapeutics, Inc., priority 2023, published 2025).
Like-named read-outs stand apart in the source and are kept apart here.

Key:
[1] = tested on: BALB/c.Mdr2−/− mouse model of biliary fibrosis; experiment: Direct (invasive) portal venous pressure measurement; format: in vivo; conditions: 100, 300, 1000 mg/kg PO/QD, 6 weeks
Protocol: Antifibrotic activity of (S)-4-((2-methoxyethyl)(4-(5,6,7,8-tetrahydro-1,8-naphthyridin-2-yl)butyl)amino)-2-(quinazolin-4-ylamino)butanoic acid was tested in the BALBc.Mdr2−/− murine model of liver biliary fibrosis. […] BALBc.Mdr2−/− mice develop periductular fibrotic lesions at 4 weeks with rapid and progressive fibrotic progression. Bridging fibrosis and early cirrhosis is observed at 12 weeks along with severe portal hypertension and enhanced collagen deposition.
The tissue source is BALBc.Mdr2-/−male mice that were 6 weeks old. The Mdr2(abcb4)−/− mouse model of sclerosing cholangitis has been previously described and is a model of spontaneously progressive hepatic fibrosis in mice with deletion of the biliary phospholipid flippase on fibrosis-susceptible background (Mdr2(abcb4)^−/−. BALB/c mouse). See N. Ikenaga, et al. (2015) Am J Pathol. 185 (2): 325-334, the entire contents of which are hereby incorporated by reference in their entirety. […]
After laparotomy, the portal vein of the mouse subject was cannulated through an ileocolic vein, and portal pressure was measured directly by inserting a 1.2-Fr high-fidelity pressure catheter. Pressure signals were recorded at 2 kHz for 5 Min, and analyzed using PowerLab software. […]

[2] = tested on: BALB/c.Mdr2−/− mouse model of biliary fibrosis; experiment: Assessment of body and organ weights (liver, spleen) and colon length; format: in vivo; conditions: 6 weeks
Excerpt: The tissue source is BALBc.Mdr2-/−male mice that were 6 weeks old. The Mdr2(abcb4)−/− mouse model of sclerosing cholangitis has been previously described and is a model of spontaneously progressive hepatic fibrosis in mice with deletion of the biliary phospholipid flippase on fibrosis-susceptible background (Mdr2(abcb4)^−/−. BALB/c mouse). See N. Ikenaga, et al. (2015) Am J Pathol. 185 (2): 325-334, the entire contents of which are hereby incorporated by reference in their entirety.
(S)-4-((2-methoxyethyl)(4-(5,6,7,8-tetrahydro-1,8-naphthyridin-2-yl)butyl)amino)-2-(quinazolin-4-ylamino)butanoic acid (or PBS) was dosed once daily orally at 100 mg/kg, 300 mg/kg or 1000 mg/kg (see Table B-2) starting at 6 weeks after birth of the subject and continuing for 6 weeks. All animals were euthanized and necropsied at the end of week 12.
Body, liver and spleen weights and colon length were determined at necropsy. Liver and plasma were snap frozen/preserved in liquid nitrogen. Two pieces of liver were fixed in formalin for histological assessment.

αVβ1 integrin = αVβ1 integrin (Homo sapiens, UniProt P05556+P06756); experiment: Inhibition of αVβ1 integrin (IC50); format: binding; conditions: read-out: 50% inhibitory concentration [IC50] αVβ1
other integrin receptors = experiment: Integrin-ligand binding assays (selectivity); conditions: including leukocyte-expressed integrins
[3] = tested on: subjects with PSC and concomitant IBD; experiment: Phase 2a INTEGRIS-PSC: IBD symptoms (partial Mayo Score); format: in vivo, human
Excerpt: Questionnaires to assess PROs will be administered at Baseline, Weeks 4 and 12(Parts 1, 2, and 3) and at Week 24 (Part 3 only), and will include the Chronic Liver Disease Questionnaire (CLDQ), the Itch Numeric Rating Scale (NRS), and the Partial Mayo Score (PMS), when available for use. See A. N. Naegeli, et al. (2015) International Journal of Dermatology 54 (6): 715-722 and Z. M. Younossi, et al. (1999) Gut 45:295-300, the entire contents of which are hereby incorporated by reference in their entirety.

[4] = tested on: subjects with PSC and suspected liver fibrosis
[5] = 40 mg (n = 24), 12 weeks, Example B-3
[6] = 40 mg once daily, Week 12, n = 24
[7] = 80 mg (n = 20), 12 weeks, Example B-3
[8] = 80 mg once daily, Week 12, n = 20
[9] = 160 mg (n = 20), 12 weeks, Example B-3
[10] = 160 mg once daily, Week 12, n = 20
[11] = 320 mg once daily, Week 12, n = 27
[12] = 320 mg, Example B-5 24-week data (Table D-7), n = 27
[13] = 40, 80, 160, and 320 mg pooled, Week 12, n = 91
[14] = All (n = 64), 12 weeks, Example B-3

Sequence of αVβ1 integrin (P06756 31-1048): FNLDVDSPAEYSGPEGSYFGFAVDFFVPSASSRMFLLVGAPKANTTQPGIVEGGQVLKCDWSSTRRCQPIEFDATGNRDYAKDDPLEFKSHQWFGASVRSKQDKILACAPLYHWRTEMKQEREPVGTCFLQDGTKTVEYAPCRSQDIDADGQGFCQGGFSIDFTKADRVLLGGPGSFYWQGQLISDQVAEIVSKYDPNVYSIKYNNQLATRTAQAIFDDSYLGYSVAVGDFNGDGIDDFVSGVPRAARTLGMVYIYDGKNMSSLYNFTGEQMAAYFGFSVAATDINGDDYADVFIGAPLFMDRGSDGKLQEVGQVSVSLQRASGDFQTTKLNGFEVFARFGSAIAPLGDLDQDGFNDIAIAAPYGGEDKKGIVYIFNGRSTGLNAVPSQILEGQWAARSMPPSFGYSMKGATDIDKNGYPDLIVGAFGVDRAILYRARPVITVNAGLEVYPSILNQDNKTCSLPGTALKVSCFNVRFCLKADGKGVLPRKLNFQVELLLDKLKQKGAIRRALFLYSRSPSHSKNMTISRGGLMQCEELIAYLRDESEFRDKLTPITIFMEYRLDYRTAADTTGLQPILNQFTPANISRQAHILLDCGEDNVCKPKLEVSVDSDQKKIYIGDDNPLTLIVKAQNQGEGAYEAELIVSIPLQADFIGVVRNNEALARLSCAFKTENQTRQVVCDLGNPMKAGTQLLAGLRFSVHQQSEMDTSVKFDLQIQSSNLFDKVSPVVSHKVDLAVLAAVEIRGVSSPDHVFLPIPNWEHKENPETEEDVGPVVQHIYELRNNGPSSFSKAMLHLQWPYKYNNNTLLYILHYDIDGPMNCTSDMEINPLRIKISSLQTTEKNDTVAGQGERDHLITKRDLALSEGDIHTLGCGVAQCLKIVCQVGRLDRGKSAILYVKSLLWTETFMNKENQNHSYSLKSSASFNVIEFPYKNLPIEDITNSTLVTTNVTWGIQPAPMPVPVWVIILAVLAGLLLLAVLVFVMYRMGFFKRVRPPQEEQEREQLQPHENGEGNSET
Sequence of αVβ1 integrin (P05556 21-798): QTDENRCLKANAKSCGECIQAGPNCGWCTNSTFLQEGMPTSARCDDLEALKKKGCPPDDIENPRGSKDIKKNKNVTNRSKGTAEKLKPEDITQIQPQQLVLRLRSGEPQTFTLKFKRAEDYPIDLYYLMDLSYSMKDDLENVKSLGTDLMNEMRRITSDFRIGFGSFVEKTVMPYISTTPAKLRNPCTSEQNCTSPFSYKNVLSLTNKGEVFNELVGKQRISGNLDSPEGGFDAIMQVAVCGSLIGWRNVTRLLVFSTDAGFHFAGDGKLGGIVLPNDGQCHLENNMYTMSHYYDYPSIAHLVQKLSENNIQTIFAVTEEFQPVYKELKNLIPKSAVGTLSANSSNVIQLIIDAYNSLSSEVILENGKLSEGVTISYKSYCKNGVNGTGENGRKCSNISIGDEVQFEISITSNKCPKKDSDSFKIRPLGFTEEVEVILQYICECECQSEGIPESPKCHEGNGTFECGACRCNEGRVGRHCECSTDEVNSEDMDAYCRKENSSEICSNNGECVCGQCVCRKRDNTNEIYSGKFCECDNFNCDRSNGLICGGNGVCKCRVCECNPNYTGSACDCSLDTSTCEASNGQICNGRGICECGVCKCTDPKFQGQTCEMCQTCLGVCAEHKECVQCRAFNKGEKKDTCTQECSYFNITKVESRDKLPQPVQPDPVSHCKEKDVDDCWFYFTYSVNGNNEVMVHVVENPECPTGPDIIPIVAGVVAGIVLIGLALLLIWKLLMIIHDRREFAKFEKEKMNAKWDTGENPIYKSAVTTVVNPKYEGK

## COCCN(CCCCc1ccc2c(n1)NCCC2)CC[C@H](Nc1ncnc2ccccc12)C(=O)O [Bexotegrast, (S)-4-((2-methoxyethyl)(4-(5,6,7,8-tetrahydro-1,8-naphthyridin-2-yl)butyl)amino)-2-(quinazolin-4-ylamino)butanoic acid]
[1]
  portal venous pressure: did not induce any changes
[2]; 1000 mg/kg/day
  liver weight relative to vehicle control: decreased
[2]; 100, 300, 1000 mg/kg
  colon length: did not change
[2]; all doses (100, 300, 1000 mg/kg)
  spleen weights: no changes
αVβ1 integrin
  IC50: 3.4 nM
Other integrin receptors
  selectivity for αVβ6 and αVβ1 over other integrin receptors: highly selective
[3]; 40, 80, 160 mg, 12 weeks, Example B-3
  IBD symptoms in patients with IBD: no clinically-relevant changes
[3]; patients with concomitant IBD, Example B-4
  IBD symptoms as measured by partial Mayo Score: no change
[4]; [5]
  COVID-19 TEAE, % of Participants Reporting: (8.3) %
  COVID-19 TEAE, n of Participants Reporting: 2 n
  TEAE Leading to Death, n of Participants Reporting: 0 n
[4]; [6]
  COVID-19 TEAE, % of Participants Reporting: (8.3) %
  COVID-19 TEAE, n of Participants Reporting: 2
  TEAE Leading to Death, n of Participants Reporting: 0
[4]; 40 mg once daily, Week 12, n = 24, COVID-19/dyspnoea/nasal congestion
  TEAE Leading to Withdrawal of bexotegrast, n of Participants Reporting: 1
[4]; 40 mg treatment group, Example B-3
  TEAE leading to withdrawal: AE Preferred Term: COVID-19/
[4]; [7]
  COVID-19 TEAE, % of Participants Reporting: (5.0) %
  COVID-19 TEAE, n of Participants Reporting: 1 n
  TEAE Leading to Death, n of Participants Reporting: 0 n
[4]; [8]
  COVID-19 TEAE, % of Participants Reporting: (5.0) %
  COVID-19 TEAE, n of Participants Reporting: 1
  TEAE Leading to Death, n of Participants Reporting: 0
[4]; [9]
  COVID-19 TEAE, n of Participants Reporting: 0 n
  TEAE Leading to Death, n of Participants Reporting: 0 n
[4]; [10]
  COVID-19 TEAE, n of Participants Reporting: 0
  TEAE Leading to Death, n of Participants Reporting: 0
[4]; [11]
  COVID-19 TEAE, % of Participants Reporting: (14.8) %
  COVID-19 TEAE, n of Participants Reporting: 4
  TEAE Leading to Death, n of Participants Reporting: 0
[4]; 320 mg, After Week 12 (Table D-4), n = 27
  TEAE Leading to Death, n of Participants Reporting After Week 12: 0
[4]; [12]
  COVID-19 TEAE, % of Participants Reporting: 18.5%
  COVID-19 TEAE, n of Participants Reporting: 5
[4]; 320 mg, after 24 weeks (Table D-3), n = 27
  TEAE Leading to Death, n of Participants Reporting: 0
[4]; [13]
  COVID-19 TEAE, % of Participants Reporting: (7.7) %
  COVID-19 TEAE, n of Participants Reporting: 7
  TEAE Leading to Death, n of Participants Reporting: 0
[4]; [14]
  COVID-19 TEAE, % of Participants Reporting: (4.7) %
  COVID-19 TEAE, n of Participants Reporting: 3 n
  TEAE Leading to Death, n of Participants Reporting: 0 n
[4]; human, in vivo, 12 weeks
  Cholangitis (TEAE), n of Participants Reporting: 2 n
  Fatigue (TEAE), n of Participants Reporting: 9 n
  Frequent bowel movements (TEAE), % of Participants Reporting: (4.7) %
  Frequent bowel movements (TEAE), n of Participants Reporting: 3 n
  Headache (TEAE), n of Participants Reporting: 6 n
  Nausea (TEAE), n of Participants Reporting: 6 n
  Pruritus (TEAE), n of Participants Reporting: 9 n
  Serious TEAE Related to study drug, n of Participants Reporting: 0 n
  Serious TEAE, % of Participants Reporting: (3.1) %
  Serious TEAE, n of Participants Reporting: 2 n
  TEAE Leading to Early Termination from Study, % of Participants Reporting: (1.6)^1%
  TEAE Leading to Early Termination from Study, n of Participants Reporting: 1 n
  TEAE Leading to Interruption of Study Drug, % of Participants Reporting: (1.6)^1%
  TEAE Leading to Interruption of Study Drug, n of Participants Reporting: 1 n
  TEAE Leading to Withdrawal of Study Drug, % of Participants Reporting: (4.7)^2, 3, 4%
  TEAE Leading to Withdrawal of Study Drug, n of Participants Reporting: 3 n
  TEAE Related to study drug, % of Participants Reporting: (17.2) %
  TEAE Related to study drug, n of Participants Reporting: 11 n
  TEAE of CTCAE Grade 3 or Higher Related to study drug, n of Participants Reporting: 0 n
  TEAE of CTCAE Grade 3 or Higher, % of Participants Reporting: (6.3) %
  TEAE of CTCAE Grade 3 or Higher, n of Participants Reporting: 4 n
  TEAE, % of Participants Reporting: (64.1) %
  TEAE, n of Participants Reporting: 41 n
[4]; in vivo
  AEs of pruritus and cholangitis relative to placebo: occurred less frequently
